Earlier results, collected in US20240277756A1 (NACAMED AS, priority 2021, published 2024).

Columns and labels:
[1] = oral
[2] = calculated log P values from Foye's Principles of Medicinal Chemistry, Seventh Edition (2011)

Row | SMILES | absolute bioavailability (in words) [1] | log P [2]
1 | C[C@@H]1[C@H](O)[C@@H](C)/C=C/C=C/C=C/C=C/C=C/C=C/C=C/[C@H](O[C@@H]2O[C@H](C)[C@@H](O)[C@H](N)[C@@H]2O)C[C@@H]2O[C@](O)(C[C@@H](O)C[C@@H](O)[C@H](O)CC[C@@H](O)C[C@@H](O)CC(=O)O[C@H]1C)C[C@H](O)[C@H]2C(=O)O [amphotericin B] | very low | 
2 | CCCc1nc(C)c2c(=O)nc(-c3cc(S(=O)(=O)N4CCN(CC)CC4)ccc3OCC)[nH]n12 [valdanafil] |  | 3.64
